{
  "source": "paper PMC8187357",
  "about": "(Communications Biology, 2021)",
  "key": {"Prostanoid EP4, IP, TP": {"tested_on": "Prostanoid EP4, IP, TP", "experiment": "CEREP 80 panel binding: Prostanoid", "conditions": "10 µM", "protocol": "(§1) CEREP 80 panel assay was carried out by Eurofins Cerep Panlabs facility at France. A series of binding assays was carried out to understand the off-target toxicity of CA-170. CA-170 was tested at 10 μM test concentration in duplicates. Compound binding was calculated as a % inhibition of the binding of a radioactively labeled ligand specific for each target. In each experiment the respective reference compound was tested concurrently with CA-170, and the data were compared with historical values determined at Eurofins. The experiment was accepted in accordance with Eurofins validation standard operating procedure. The results are expressed as a percent of control specific binding; (measured specific binding / control specific binding) × 100 and as a percent inhibition of control specific binding; 100−(measured specific binding / control specific binding) × 100 obtained in the presence of CA-170. The IC50 values (concentration causing a half-maximal inhibition of control specific binding) and Hill coefficients (nH) were determined by non-linear regression analysis of the competition curves generated with mean replicate values using Hill equation curve fitting."}, "PD-L1": {"target": "T1, PD-L1 (Mus musculus, UniProt Q9EP73)", "T1 construct": "purchased R&D Systems 1019-B7-100", "T1 sequence (Q9EP73 with tags, fused parts or gaps limits assumed)": "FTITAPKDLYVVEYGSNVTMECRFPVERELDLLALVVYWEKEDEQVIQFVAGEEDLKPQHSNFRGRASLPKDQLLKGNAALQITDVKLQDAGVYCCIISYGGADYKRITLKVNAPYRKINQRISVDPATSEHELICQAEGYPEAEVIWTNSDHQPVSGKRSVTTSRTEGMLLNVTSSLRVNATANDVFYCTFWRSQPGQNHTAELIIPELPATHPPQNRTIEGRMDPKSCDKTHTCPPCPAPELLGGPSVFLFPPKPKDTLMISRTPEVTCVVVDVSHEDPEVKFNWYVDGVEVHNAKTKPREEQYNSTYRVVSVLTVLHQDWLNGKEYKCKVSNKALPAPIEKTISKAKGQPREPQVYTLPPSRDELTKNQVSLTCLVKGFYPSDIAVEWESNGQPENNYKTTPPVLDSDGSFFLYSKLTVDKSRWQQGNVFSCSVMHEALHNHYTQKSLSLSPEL", "experiment": "Rescue of IFN-γ release inhibited by PD-L1, mouse splenocytes", "format": "cell-based", "conditions": "mean ± S.D.; n=2; read-out: Mouse Splenocyte IFN-γ Rescue EC50 PD-L1", "experimental": "The ability of peptides, peptidomimetics, and small molecules were analyzed for their ability to rescue T-cell proliferation or IFN-γ release from the inhibitory activity of PD-L1 or PD-L2 in a splenocyte/PBMC-based functional assay as per the protocols reported in publication[20]. […] For all in vitro assays, test agent stock was prepared in water and diluted further in the assay media to achieve test concentrations. Each experimental condition was carried out in triplicates. Percent rescue for a given test compound concentration was calculated by normalizing individual percent test agent proliferation or IFN-γ release values to percent anti-CD3 and anti-CD28 antibodies stimulated proliferation or IFN-γ release. EC50 values were derived by plotting transformed data into non-linear fit in sigmoidal dose–response curve using GraphPad Prism software (Version 7)."}, "Angiotensin -II AT1, AT2": {"tested_on": "Angiotensin -II AT1, AT2", "experiment": "CEREP 80 panel binding: Angiotensin-II", "conditions": "10 µM", "protocol": "as §1"}, "[1]": {"tested_on": "Neurokinin NK1, NK2, NK3 (antagonist)", "experiment": "CEREP 80 panel binding: Neurokinin", "conditions": "10 µM", "protocol": "as §1"}, "PD-1:PD-L1 complex": {"target": "T2, PD-1:PD-L1 complex (Homo sapiens, UniProt Q9NZQ7)", "T2 construct": "purchased Sino Biologicals (PD-L1); R&D system (PD-1 Fc) 10084-H08H; 1086-PD; host or cells: mammalian cells", "T2 sequence (Q9NZQ7 19-239 limits assumed, one chain of several)": "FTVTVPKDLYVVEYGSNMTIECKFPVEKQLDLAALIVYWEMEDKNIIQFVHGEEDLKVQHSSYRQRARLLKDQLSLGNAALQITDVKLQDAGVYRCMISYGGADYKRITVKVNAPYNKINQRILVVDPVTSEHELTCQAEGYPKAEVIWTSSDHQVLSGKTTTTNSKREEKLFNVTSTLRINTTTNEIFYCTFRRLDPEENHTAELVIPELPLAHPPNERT", "experiment": "TR-FRET PD-1:PD-L1 complex formation assay", "format": "binding", "conditions": "for Percent inhibition: duplicates", "protocol": "The assay was performed using LANCE Ultra TR-FRET binding assay. To determine the half maximal inhibitory concentration (IC50) of tested compounds, they were solubilized in water and measurements were performed on individual dilution series. His-tagged human recombinant PD-L1 protein (Sino Biologicals, Cat#10084-H08H) at 20 nM final concentration was incubated at 25 °C temperature with indicated concentration of test compound for 15 min in a white Lumitec high-binding, 384-well plate (Grenier, Cat #781074). […] LANCE Eu-anti-human IgG from Perkin Elmer, (Cat# AD0212) at 0.5 nM final concentration and Surelight Allophycocyanin-6-His from Perkin Elmer (Cat# AD0059H) at 20 nM final concentration was added to the wells. […] Collected data was background subtracted on the negative control, normalized, and analyzed using non-linear regression analysis to determine the IC50 value by GraphPad Prism Version 8."}, "CT26 tumor model": {"tested_on": "CT26 tumor model", "experiment": "Tumor-infiltrating Tregs and CD8/FoxP3 ratio in CT26 model", "format": "in vivo, mouse", "from_the_text": "Supplementary Figure 2: Effect of CA-170 alone and in combination with CTX on CD8/FoxP3 […]\nadministration of CA-170 in CT26 tumor model, as observed by the measuring CD4+CD25+FoxP3+ cells. However, an increase in the number of infiltrating CD8+ T cells increased in CA-170 + CTX treated group, led to a favourable increase in the ratio of CD8+T cells […]\n(1 picture or pasted object on this page, not shown here)"}, "B16F10 melanoma": {"tested_on": "B16F10 melanoma", "experiment": "B16F10 melanoma lung metastasis model", "format": "in vivo, mouse", "conditions": "10 mg/kg/day orally for 14 days", "protocol": "(§2) Studies in syngeneic models including B16 melanoma metastasis model and CT26 colon carcinoma subcutaneous model were performed as described. For the Docetaxel combination experiment in CT26 model, indicated dosage of docetaxel (Source: Docetere® injection by Dr Reddy’s Laboratories) was dosed intraperitoneally to animals. For the CA-170 combination groups, CA-170 (10 mg/kg/day, oral) was dosed ~10 min after docetaxel. Animal grouping, treatment efficacy assessment and %TGI calculations were performed as mentioned above. For the CT26 experiment with cyclophosphamide, 100 mg/kg of cyclophosphamide was dosed once on day 5 intraperitoneally after cell implantation (first day of dosing for all other groups). Anti-PD1 antibody (Clone J43 from BioXcel) was dosed intraperitoneally at 100 µg/animal once every week."}, "[2]": {"tested_on": "Classical Hodgkin lymphoma", "set-up": "method as in doi:10.1093/annonc/mdz253.035", "conditions": "Phase 2, Lugano criteria; cited from earlier work"}, "Cannabinoid CB1": {"target": "T3, Cannabinoid CB1 (Homo sapiens, UniProt P21554)", "T3 construct": "Eurofins Cerep Panlabs", "T3 sequence (P21554 whole entry)": "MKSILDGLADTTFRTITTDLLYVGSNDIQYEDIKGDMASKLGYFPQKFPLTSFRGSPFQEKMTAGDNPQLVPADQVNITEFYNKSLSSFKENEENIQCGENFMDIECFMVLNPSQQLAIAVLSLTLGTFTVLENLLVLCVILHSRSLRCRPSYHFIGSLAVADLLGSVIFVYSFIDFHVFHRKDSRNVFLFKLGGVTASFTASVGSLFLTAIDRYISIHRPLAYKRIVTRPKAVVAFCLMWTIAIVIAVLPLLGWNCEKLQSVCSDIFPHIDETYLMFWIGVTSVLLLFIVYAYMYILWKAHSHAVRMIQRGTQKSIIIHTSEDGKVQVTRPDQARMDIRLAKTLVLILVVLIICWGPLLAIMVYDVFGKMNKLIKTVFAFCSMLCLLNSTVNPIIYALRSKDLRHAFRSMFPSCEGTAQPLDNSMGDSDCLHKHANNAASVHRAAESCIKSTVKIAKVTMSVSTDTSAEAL", "experiment": "CEREP 80 panel binding: Cannabinoid", "conditions": "read-out: % Inhibition of Control Specific Binding", "protocol": "as §1"}, "CT26 colon carcinoma": {"tested_on": "CT26 colon carcinoma", "experiment": "CT26 model, combination with docetaxel", "format": "in vivo, mouse", "conditions": "for Individual tumor volumes: CA-170 alone, individual animals; for TGI: CT26 in Balb/c mice, 12 days", "protocol": "as §2"}, "Adenosine A1, A2A, A3": {"tested_on": "Adenosine A1, A2A, A3", "experiment": "CEREP 80 panel binding: Adenosine", "conditions": "10 µM", "protocol": "as §1"}, "DOP, KOP, MOP, NOP": {"tested_on": "DOP, KOP, MOP, NOP", "experiment": "CEREP 80 panel binding: Opioid & Opioid like", "conditions": "10 µM", "protocol": "as §1"}, "[3]": {"tested_on": "Muscarinic M1, M2, M3, M4, M5", "experiment": "CEREP 80 panel binding: Muscarinic", "conditions": "10 µM", "protocol": "as §1"}, "[4]": {"tested_on": "Adrenergic α1, α2, β1, β2", "experiment": "CEREP 80 panel binding: Adrenergic", "conditions": "10 µM", "protocol": "as §1"}, "purinergic P2X, P2Y": {"tested_on": "purinergic P2X, P2Y", "experiment": "CEREP 80 panel binding: purinergic", "conditions": "10 µM", "protocol": "as §1"}},
  "note": "Values joined by “and” are separate entries in the source; they are usually repeats but may differ in a detail not shown here. Equal values may be shown once.",
  "data": [
    {"smiles": "C[C@@H](O)[C@H](NC(=O)N[C@@H](CC(N)=O)c1nc([C@@H](N)CO)no1)C(=O)O", "note": "[CA-170]", "values": [
      {"measurement": "% Inhibition of Control Specific Binding", "setting": "Prostanoid EP4, IP, TP", "result": "≤ 5", "unit": "%"},
      {"measurement": "remaining at 4 h, 10 μM", "setting": "Plasma stability, human", "result": "> 95", "unit": "%"},
      {"measurement": "EC50", "setting": "PD-L1", "result": 34.6, "unit": "nM"},
      {"measurement": "% Inhibition of Control Specific Binding", "setting": "Angiotensin -II AT1, AT2", "result": "≤ 5", "unit": "%"},
      {"measurement": "% Inhibition of Control Specific Binding", "setting": "[1]", "result": "≤ 6", "unit": "%"},
      {"measurement": "Percent inhibition", "setting": "PD-1:PD-L1 complex; 1e-7 M", "result": "6.182% and -0.9776%"},
      {"measurement": "Percent inhibition", "setting": "PD-1:PD-L1 complex; 1e-6 M", "result": "-12.4686% and -2.961%"},
      {"measurement": "Percent inhibition", "setting": "PD-1:PD-L1 complex; 1e-5 M", "result": "-7.3407% and -7.039%"},
      {"measurement": "Percent inhibition", "setting": "PD-1:PD-L1 complex; 0.0001 M", "result": "-7.475% and -8.751%"},
      {"measurement": "prevention of PD-1:PD-L1 complex formation (in words)", "setting": "PD-1:PD-L1 complex; tested up to 100 μM", "result": "did not lead to prevention of complex formation"},
      {"measurement": "levels of tumor-infiltrating Tregs (CD4+CD25+FoxP3+ cells; in words)", "setting": "CT26 tumor model; CA-170", "result": "No significant change"},
      {"measurement": "ratio of CD8+T cells to Tregs (in words)", "setting": "CT26 tumor model; CA-170 + CTX", "result": "increased significantly"},
      {"measurement": "reduction in metastatic nodules", "setting": "B16F10 melanoma; B16F10, vs vehicle control", "result": 73, "unit": "%"},
      {"measurement": "Individual Metastatic nodules on lungs", "setting": "B16F10 melanoma; B16F10 iv in C57B6 mice, 10 mg/kg/day", "result": "3 and 23 and 2 and 13 and 0 and 8 and 1 and 10 and 14"},
      {"measurement": "ORR", "setting": "[2]", "result": 30, "unit": "%"},
      {"measurement": "inhibition at 10 µM", "setting": "Cannabinoid CB1", "result": 12, "unit": "%"},
      {"measurement": "Individual tumor volumes", "setting": "CT26 colon carcinoma; day 1 of treatment", "result": "20.16 mm3 and 32.48 mm3 and 34.58 mm3 and 45.49 mm3 and 48.25 mm3 and 58.95 mm3 and 62 mm3 and 77.12 mm3 and 87.62 mm3"},
      {"measurement": "Individual tumor volumes", "setting": "CT26 colon carcinoma; day 4 of treatment", "result": "46.73 mm3 and 66.38 mm3 and 43.09 mm3 and 70.24 mm3 and 54.41 mm3 and 118.43 mm3 and 93.26 mm3 and 105.24 mm3 and 188.91 mm3"},
      {"measurement": "Individual tumor volumes", "setting": "CT26 colon carcinoma; day 6 of treatment", "result": "73.66 mm3 and 96.49 mm3 and 125.38 mm3 and 93.3 mm3 and 88 mm3 and 204.79 mm3 and 132.26 mm3 and 118.36 mm3 and 317.89 mm3"},
      {"measurement": "Individual tumor volumes", "setting": "CT26 colon carcinoma; day 8 of treatment", "result": "84.62 mm3 and 174.68 mm3 and 185.55 mm3 and 147.74 mm3 and 147.76 mm3 and 334.98 mm3 and 214.88 mm3 and 178.28 mm3 and 601.81 mm3"},
      {"measurement": "Individual tumor volumes", "setting": "CT26 colon carcinoma; day 11 of treatment", "result": "209.65 mm3 and 360.36 mm3 and 315.63 mm3 and 279.2 mm3 and 265.42 mm3 and 706.83 mm3 and 356.89 mm3 and 376.42 mm3 and 728.46 mm3"},
      {"measurement": "TGI", "setting": "CT26 colon carcinoma; CA-170 10 mg/kg/day single agent", "result": 43, "unit": "%"},
      {"measurement": "TGI", "setting": "CT26 colon carcinoma; combination CA-170 10 mg/kg and docetaxel 10 mg/kg", "result": 68, "unit": "%"},
      {"measurement": "% Inhibition of Control Specific Binding", "setting": "Adenosine A1, A2A, A3", "result": "≤ 26", "unit": "%"},
      {"measurement": "% Inhibition of Control Specific Binding", "setting": "DOP, KOP, MOP, NOP", "result": "≤ 9", "unit": "%"},
      {"measurement": "% Inhibition of Control Specific Binding", "setting": "[3]", "result": "≤ 12", "unit": "%"},
      {"measurement": "% Inhibition of Control Specific Binding", "setting": "[4]", "result": "≤ 6", "unit": "%"},
      {"measurement": "% Inhibition of Control Specific Binding", "setting": "purinergic P2X, P2Y", "result": "≤ 3", "unit": "%"}
    ]}
  ]
}
